# Laboratory results: PubChem BioAssay (NCI)
#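 Dose response: 5 concentrations. Exposure: 48 h. Format: 96-well plates. Endpoint: linear interpolation; highest concentration if not reached. GI50 is the concentration that inhibits growth by half. TGI is the concentration that stops growth completely.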
# What was measured:
# Test in all cases: DTP human tumour cell line panel, 48 h
# [1] = test system: BT-549 breast
# [2] = test system: HS 578T breast
# [3] = test system: NCI/ADR-RES ovarian
# [4] = test system: A498 renal
# [5] = test system: SK-MEL-5 melanoma
# [6] = test system: UACC-257 melanoma
# [7] = test system: HCC-2998 colon
# [8] = test system: IGROV1 ovarian
# [9] = test system: MOLT-4 leukemia
# [10] = test system: SF-295 CNS
# [11] = test system: NCI-H460 lung
# [12] = test system: HCT-15 colon
# [13] = test system: SF-539 CNS
# [14] = test system: CAKI-1 renal
# [15] = test system: SK-MEL-28 melanoma
# [16] = test system: T-47D breast
# [17] = test system: KM12 colon
# [18] = test system: COLO 205 colon
# [19] = test system: MALME-3M melanoma
# [20] = test system: SK-OV-3 ovarian
# [21] = test system: ACHN renal
# [22] = test system: HL-60(TB) leukemia
# [23] = test system: UO-31 renal
# [24] = test system: TK-10 renal
# [25] = test system: SNB-75 CNS
# [26] = test system: OVCAR-8 ovarian
# [27] = test system: SK-MEL-2 melanoma
# [28] = test system: SR leukemia
# [29] = test system: OVCAR-4 ovarian
# [30] = test system: A549 NSCLC
# [31] = test system: LOX IMVI melanoma
# [32] = test system: M14 melanoma
# [33] = test system: PC-3 prostate
# [34] = test system: NCI-H522 lung
# [35] = test system: CCRF-CEM leukemia
# [36] = test system: MDA-MB-435
# [37] = test system: NCI-H23 lung
# [38] = test system: SW-620 colon
# [39] = test system: K-562 leukemia
# [40] = test system: HT29 colon
# [41] = test system: U251 CNS
# [42] = test system: RXF 393 renal
# [43] = test system: UACC-62 melanoma
# [44] = test system: HOP-92 NSCLC
# [45] = test system: MCF7 breast
# [46] = test system: SF-268 CNS
# [47] = test system: HCT-116 colon
# [48] = test system: 786-0 renal
# [49] = test system: SN12C renal
# [50] = test system: EKVX NSCLC
# [51] = test system: HOP-62 NSCLC
# [52] = test system: MDA-MB-231 breast
# [53] = test system: DU-145 prostate
# [54] = test system: RPMI-8226 leukemia
# [55] = test system: SNB-19 CNS
# [56] = test system: OVCAR-3 ovarian
# [57] = test system: OVCAR-5 ovarian
compound,measurement,setting,value
COc1cc(CNCCCCCCN2C(=O)c3cccc4cccc(c34)C2=O)ccc1O,GI50,[1],14.5 µM
same,TGI,[1],27.9 µM
same,GI50,[2],10 µM
same,TGI,[2],37.4 µM
same,GI50,[3],10.4 µM
same,TGI,[3],32.9 µM
same,GI50,[4],0.735 µM
same,TGI,[4],21 µM
same,GI50,[5],2 µM
same,TGI,[5],5.92 µM
same,GI50,[6],2.15 µM
same,TGI,[6],4.49 µM
same,GI50,[7],11.2 µM
same,TGI,[7],24.6 µM
same,GI50,[8],3.72 µM
same,TGI,[8],16.2 µM
same,GI50,[9],3.45 µM
same,TGI,[9],16.2 µM
same,GI50,[10],9.13 µM
same,TGI,[10],25.4 µM
same,GI50,[11],3.71 µM
same,TGI,[11],15.9 µM
same,GI50,[12],10.4 µM
same,TGI,[12],29.6 µM
same,GI50,[13],1.82 µM
same,TGI,[13],3.83 µM
same,GI50,[14],8.44 µM
same,TGI,[14],26.9 µM
same,GI50,[15],2.06 µM
same,TGI,[15],4.31 µM
same,GI50,[16],2.93 µM
same,TGI,[16],14.3 µM
same,GI50,[17],5.57 µM
same,TGI,[17],18.9 µM
same,GI50,[18],2.54 µM
same,TGI,[18],6.62 µM
same,GI50,[19],2.02 µM
same,TGI,[19],4.63 µM
same,GI50,[20],12.3 µM
same,TGI,[20],24.8 µM
same,GI50,[21],5.38 µM
same,TGI,[21],18.4 µM
same,GI50,[22],3.33 µM
same,TGI,[22],24.3 µM
same,GI50,[23],2.65 µM
same,TGI,[23],15.2 µM
same,GI50,[24],10.1 µM
same,TGI,[24],24.8 µM
same,GI50,[25],10.5 µM
same,TGI,[25],22.4 µM
same,GI50,[26],4.73 µM
same,TGI,[26],21.3 µM
same,GI50,[27],5.56 µM
same,TGI,[27],18.2 µM
same,GI50,[28],2.36 µM
same,TGI,[28],7.8 µM
same,GI50,[29],6.14 µM
same,TGI,[29],19.2 µM
same,GI50,[30],5.56 µM
same,TGI,[30],19.4 µM
same,GI50,[31],1.86 µM
same,TGI,[31],3.68 µM
same,GI50,[32],1.97 µM
same,TGI,[32],3.85 µM
same,GI50,[33],4.42 µM
same,TGI,[33],18.7 µM
same,GI50,[34],2.32 µM
same,TGI,[34],7.97 µM
same,GI50,[35],3.53 µM
same,TGI,[35],29.3 µM
same,GI50,[36],3.89 µM
same,TGI,[36],15.9 µM
same,GI50,[37],10.8 µM
same,TGI,[37],25.2 µM
same,GI50,[38],4.1 µM
same,TGI,[38],17.2 µM
same,GI50,[39],2.91 µM
same,TGI,[39],11 µM
same,GI50,[40],2.62 µM
same,TGI,[40],10.1 µM
same,GI50,[41],4.51 µM
same,TGI,[41],17.3 µM
same,GI50,[42],2 µM
same,TGI,[42],9.19 µM
same,GI50,[43],13.1 µM
same,TGI,[43],26.2 µM
same,GI50,[44],2.46 µM
same,TGI,[44],17.5 µM
same,GI50,[45],1.74 µM
same,TGI,[45],3.45 µM
same,GI50,[46],8.4 µM
same,TGI,[46],24.8 µM
same,GI50,[47],3.14 µM
same,TGI,[47],11.2 µM
same,GI50,[48],5.59 µM
same,TGI,[48],19.9 µM
same,GI50,[49],10.1 µM
same,TGI,[49],22 µM
same,GI50,[50],13.1 µM
same,TGI,[50],29.8 µM
same,GI50,[51],5.78 µM
same,TGI,[51],19.1 µM
same,GI50,[52],5.84 µM
same,TGI,[52],19.6 µM
same,GI50,[53],6.08 µM
same,TGI,[53],18.9 µM
same,GI50,[54],2.63 µM
same,TGI,[54],7.19 µM
same,GI50,[55],13.6 µM
same,TGI,[55],28.5 µM
same,GI50,[56],4.11 µM
same,TGI,[56],16.6 µM
same,GI50,[57],14.1 µM
same,TGI,[57],29 µM
